Results: US20240174690A1, “ANNULATED 2-AMINO-3-CYANO THIOPHENES AND DERIVATIVES FOR THE TREATMENT OF CANCER” (BOEHRINGER INGELHEIM INTERNATIONAL GMBH, priority 2021, published 2024)
Like-named read-outs stand apart in the source and are kept apart here.

Legend:
LOVO cells = experiment: LOVO CTG proliferation assay (120 h) (CRC, G13D); type: cell-based; conditions: Homo sapiens, CTG 120 h
Description: LOVO CTG Proliferation Assay (120 h) (CRC, G13D)
LOVO cells (ATCC CCL-229) are dispensed into 384-well plates, flat and clear bottom (Greiner, PNr. 781091) at a density of 1000 cells per well in 60 μL DMEM (Sigma D6429)+10% Fetal Calf Serum (HyClone, PNr.: SH30084.03) and incubated at 37° C. in a CO2 incubator overnight. The next day, compounds (10 mM stock in DMSO) are added with the ECHO acoustic liquid handler system (Beckman Coulter), including DMSO controls. Plates are incubated for 120 h, and cell viability is measured using CellTiter-Glo luminescent cell viability reagent (Promega product code G7570). Viability (stated as percent of control) is defined as relative luminescence units RLU of each well divided by the RLU of cells in DMSO controls. IC50 values are determined from viability measurements by non-linear regression using a four-parameter model.

CYP3A4 = CYP3A4 (Homo sapiens (Human), UniProt P08684); experiment: Mechanism based inhibition of CYP3A4 assay (MBI 3A4); type: in vitro ADME; conditions: hydroxy-midazolam formation after 30 min vs 0 min preincubation, 25 uM, human liver microsomes
Description: After preincubation, the incubate is diluted 1:10 and the substrate midazolam is added for the main incubation (15 min). The main incubation is quenched with acetonitrile and the formation of hydroxy-midazolam is quantified via LC/MS-MS. The formation of hydroxy-midazolam from the 30 min preincubation relative to the formation from the 0 min preincubation is used as a readout. Values of less than 100% mean that the substrate midazolam is metabolized to a lower extent upon 30 min preincubation compared to 0 min preincubation. In general low effects upon 30 min preincubation are desired (corresponding to values close to 100%/not different to the values determined with water control).

[1] = tested on: KRAS G12D-dependent Ba/F3 cells; experiment: Ba/F3 proliferation assay, KRAS G12D; type: cell-based; conditions: Mus musculus, BaF3, 72 h, AlamarBlue
Description: (§1) Plasmids containing KRASG12 mutants (i.e. […], G12C, G12V) are obtained from GeneScript. To generate KRASG12-dependent Ba/F3 models, Ba/F3 cells are transduced with retroviruses containing vectors that harbor KRASG12 isoforms. Platinum-E cells (Cell Biolabs) are used for retrovirus packaging. Retrovirus is added to Ba/F3 cells. To ensure infection, 4 μg/mL polybrene is added and cells are spinfected. […] Cells with an infection efficiency of 10% to 20% are further cultivated and puromycin selection with 1 μg/mL is initiated. As a control, parental Ba/F3 cells are used to show selection status. Selection is considered successful when parental Ba/F3 cells cultures died. To evaluate the transforming potential of KRASG12 mutations, the growth medium is no longer supplemented with IL-3. Ba/F3 cells harboring the empty vector are used as a control. Approximately ten days before conducting the experiments, puromycin is left out.
(§2) Compounds are added using an Access Labcyte Workstation with a Labcyte Echo 550 or 555 accoustic dispenser. All treatments are performed in technical duplicates. […] AlamarBlue™ (ThermoFisher), a viability stain, is added and fluorescence measured in the PerkinElmer Envision HTS Multilabel Reader. The raw data are imported into and analyzed with the Boehringer Ingelheim proprietary software MegaLab (curve fitting based on the program PRISM, GraphPad Inc.).

[2] = tested on: KRAS G12C-dependent Ba/F3 cells; experiment: Ba/F3 proliferation assay, KRAS G12C; type: cell-based; conditions: Mus musculus, BaF3, 72 h, AlamarBlue
Description: as §1, §2

NCI-H358 cells = experiment: NCI-H358 CTG proliferation assay (120 h) (NSCLC, G12C); type: cell-based, human; conditions: Homo sapiens
Description: NCI-H358 CTG Proliferation Assay (120 h) (NSCLC, G12C)
NCI-H358 cells (ATCC No. CRL-5807) are dispensed into white bottom opaque 96 well plates (Perkin Elmer cat no. 5680) at a density of 2000 cells per well in 100 μL RPMI-1640 ATCC-Formulation (Gibco #A10491)+10% FCS (fetal calf serum) (assay 1) or into black 384-well plates, flat and clear bottom (Greiner, PNr. 781091) at a density of 200 cells per well in 60 μl RPMI-1640 ATCC-Formulation (Gibco #A10491)+10% FCS (fetal calf serum) (assay 2). […] Compounds (10 mM stock in DMSO) are added at logarithmic dose series using the HP Digital Dispenser D300 (Tecan) (assay 1) or the ECHO acoustic liquid handler system (Beckman Coulter) (assay 2), normalizing for added DMSO and including DMSO controls. For the TO time point measurement, untreated cells are analyzed at the time of compound addition. Plates are incubated for 120 h, and cell viability is measured using CellTiter-Glo luminescent cell viability reagent (Promega product code G7570). Viability (stated as percent of control) is defined as relative luminescence units RLU of each well divided by the RLU of cells in DMSO controls. IC50 values are determined from viability measurements by non-linear regression using a four parameter model.

[3] = tested on: KRAS G12V-dependent Ba/F3 cells; experiment: Ba/F3 proliferation assay, KRAS G12V; type: cell-based; conditions: Mus musculus, BaF3, 72 h, AlamarBlue;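 note: proliferation IC50 in KRAS G12V-dependent Ba/F3 cells read by AlamarBlue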
Description: as §1, §2

[4] = Metabolic (microsomal) stability assay, human liver microsomes (HLM); type: in vitro ADME; conditions: predicted clearance as percent of liver blood flow, 1 μM
Description: The metabolic degradation of the test compound is assayed at 37° C. with pooled liver microsomes (mouse (MLM), rat (RLM) or human (HLM)). The final incubation volume of 48 μL pertime point contains TRIS buffer (pH 7.5; 0.1 M), magnesium chloride (6.5 mM), microsomal protein (0.5 mg/mL for mouse/rat, 1 mg/mL for human specimens) and the test compound at a final concentration of 1 μM. Following a short preincubation period at 37° C., the reactions are initiated by addition of 12 μL beta-nicotinamide adenine dinucleotide phosphate, reduced form (NADPH, 10 mM) and terminated by transferring an aliquot into solvent after different time points (0, 5, 15, 30, 60 min). Additionally, the NADPH-independent degradation is monitored in incubations without NADPH, terminated at the last time point by addition of acetonitrile. The quenched incubations are pelleted by centrifugation (4,000 rpm, 15 min). An aliquot of the supernatant is assayed by LC-MS/MS to quantify the concentration of parent compound in the individual samples.
In vitro intrinsic clearance (CLint, in vitro) is calculated from the time course of the disappearance of the test drug during the microsomal incubation. Each plot is fitted to the first-order elimination rate constant as C(t)═C0*exp(−ke*t), where C(t) and C0 are the concentration of unchanged test drug at incubation time t and that at preincubation and ke is the disappearance rate constant of the unchanged drug. Subsequently, CLint in vitro (μL min^−1·amount protein) values are converted to predicted CLint,in vivo (mL min^−1 kg^−1) from incubation parameters according to the equation CLint, in vivo=CLint, in vitro×(incubation volume (ml)/amount protein (mg))×(amount protein (mg)/g liver tissue)×(liver weight/body wt.).
For better across species comparison the predicted clearance is expressed as percent of the liver blood flow [% QH] (mL min^−1·kg^−1) in the individual species. In general, high stability (corresponding to low % QH) of the compounds across species is desired.

[5] = assay 2, CTG, read-out: H358 (assay 2) IC50

Chain of CYP3A4 (P08684 whole entry): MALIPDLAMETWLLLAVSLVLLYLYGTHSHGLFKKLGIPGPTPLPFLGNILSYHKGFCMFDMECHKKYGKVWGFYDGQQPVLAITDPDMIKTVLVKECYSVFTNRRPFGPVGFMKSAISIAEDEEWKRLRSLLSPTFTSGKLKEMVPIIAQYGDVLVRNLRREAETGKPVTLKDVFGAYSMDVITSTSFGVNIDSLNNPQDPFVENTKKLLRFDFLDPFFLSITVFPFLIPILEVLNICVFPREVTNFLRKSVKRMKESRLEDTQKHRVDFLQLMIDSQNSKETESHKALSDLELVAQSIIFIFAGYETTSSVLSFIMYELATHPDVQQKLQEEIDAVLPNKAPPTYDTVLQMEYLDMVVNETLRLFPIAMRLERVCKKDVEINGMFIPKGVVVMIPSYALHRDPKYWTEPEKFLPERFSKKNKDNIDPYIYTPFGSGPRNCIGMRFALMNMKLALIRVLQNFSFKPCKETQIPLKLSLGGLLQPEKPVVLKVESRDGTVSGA

SMILES | IC50 (LOVO cells) [nM] | MBI 3A4 (CYP3A4) [%] | IC50 [1] [nM] | IC50 [2] [nM] | IC50 (NCI-H358 cells; [5]) [nM] | IC50 [3] [nM] | IC50 (NCI-H358 cells; assay 1, CTG, read-out: H358 (assay 1) IC50) [nM] | HLM QH [4] [%]
C[C@H](Oc1cc(N2CC[C@H](N(C)C)C2)nc(-c2noc3c2CCC[C@@]32CCCc3sc(N)c(C#N)c32)n1)[C@@H]1CCCN1C [II-49] | 651 | 75 | 16 | 329 | 1910 | 304 | – | <24
C[C@H](Oc1cc(N2CCC[C@H](O)C2)nc(-c2noc3c2CCC[C@@]32CCCc3sc(N)c(C#N)c32)n1)[C@@H]1CCCN1C [II-57] | 500 | 61 | 40 | 38 | 286 | 45 | – | <24
C[C@H](Oc1cc(C2COCCO2)nc(-c2noc3c2CCC[C@@]32CCCc3sc(N)c(C#N)c32)n1)[C@@H]1CCCN1C (some centres unmarked) [II-95] | 149 | 68 | 81 | 30 | 400 | 27 | – | 37
CO[C@@H]1C[C@@H]([C@H](C)Oc2cc(-n3ccnc3)nc(-c3noc4c3CCC[C@@]43CCCc4sc(N)c(C#N)c43)n2)N(C)C1 [II-58] | 113 | 68 | 45 | 41 | 562 | 9 | – | 46
C[C@H](Oc1cc(N2CCNCC23CCOC3)nc(-c2onc3c2CCC[C@@]32CCCc3sc(N)c(C#N)c32)n1)[C@@H]1CCCN1C (some centres unmarked) [I-10] | – | 72 | 9 | 218 | 200 | 247 | – | 30
CO[C@@H]1C[C@@H]([C@H](C)Oc2cc(-c3cnn(C)n3)nc(-c3noc4c3CCC[C@@]43CCCc4sc(N)c(C#N)c43)n2)N(C)C1 [II-62] | 2320 | 53 | 39 | 34 | – | 17 | – | 58
CO[C@@H]1C[C@@H]([C@H](C)Oc2cc(-c3ccn(C4COC4)n3)nc(-c3noc4c3CCC[C@@]43CCCc4sc(N)c(C#N)c43)n2)N(C)C1 [II-107] | 1010 | 58 | 19 | 5 | – | 8 | – | 45
C[C@H](Oc1cc(-n2cc(Cn3ccnc3)nn2)nc(-c2noc3c2CCC[C@@]32CCCc3sc(N)c(C#N)c32)n1)[C@@H]1CCCN1C [II-113] | 123 | – | 106 | 25 | 128 | 33 | – | 43

Second part, the compound after the results:

IC50 (LOVO cells) [nM] | MBI 3A4 (CYP3A4) [%] | IC50 [1] [nM] | IC50 [2] [nM] | IC50 (NCI-H358 cells; [5]) [nM] | IC50 [3] [nM] | IC50 (NCI-H358 cells; assay 1, CTG, read-out: H358 (assay 1) IC50) [nM] | HLM QH [4] [%] | SMILES
150 | 79 | 37 | 12 | 46 | 6 | – | – | C[C@H](Oc1cc(-n2cncc3ccnc2-3)nc(-c2noc3c2CCC[C@@]32CCCc3sc(N)c(C#N)c32)n1)[C@@H]1CCCN1C [II-105]
279 | 57 | 83 | 26 | 10 | 14 | 49 | 38 | C[C@H](Oc1cc(N2CCN(C)C2=O)nc(-c2noc3c2CCC[C@@]32CCCc3sc(N)c(C#N)c32)n1)[C@@H]1CCCN1C [II-75]
608 | 74 | 69 | 23 | 242 | 14 | – | <24 | C[C@H](Oc1cc(-c2ccn(C3CC3)n2)nc(-c2noc3c2CCC[C@@]32CCCc3sc(N)c(C#N)c32)n1)[C@@H]1CCCN1C [II-98]
894 | 74 | 77 | 56 | 111 | 23 | – | <24 | Cc1cn(C)nc1-c1cc(O[C@@H](C)[C@@H]2CCCN2C)nc(-c2noc3c2CCC[C@@]32CCCc3sc(N)c(C#N)c32)n1 [II-68]
52 | 94 | 26 | 18 | 290 | 7 | – | <24 | C[C@H](Oc1cc(-n2ccnc2)nc(-c2noc3c2CCC[C@@]32CCCc3sc(N)c(C#N)c32)n1)[C@@H]1CCCN1C [II-69]
62 | 77 | 15 | 6 | 126 | 6 | – | 26 | C[C@H](Oc1cc([C@H]2CCOC2)nc(-c2noc3c2CCC[C@@]32CCCc3sc(N)c(C#N)c32)n1)[C@@H]1CCCN1C [II-88]
250 | 52 | 16 | 10 | – | 17 | – | 53 | C[C@H](Oc1cc(N2CCCC2=O)nc(-c2noc3c2CCC[C@@]32CCCc3sc(N)c(C#N)c32)n1)[C@@H]1CCCN1C [II-73]
– | 53 | 21 | 7 | – | – | – | <24 | Cc1nc(-c2cc(O[C@@H](C)[C@@H]3CCCN3C)nc(-c3noc4c3CCC[C@@]43CCCc4sc(N)c(C#N)c43)n2)cs1 [II-103]
– | 78 | 78 | 24 | 391 | 12 | – | <24 | C[C@H](Oc1cc(-c2ccn3ncnc3c2)nc(-c2noc3c2CCC[C@@]32CCCc3sc(N)c(C#N)c32)n1)[C@@H]1CCCN1C [II-104]
